The source of these data is patent publication US11666583B2, “Methods of treating cortical dementia associated wandering” (WOOLSEY PHARMACEUTICALS, INC., priority 2020, dated 2023).

Data set [1] concerns patients with Alzheimer's Dementia (AD) and cortical vascular dementia (VaD). Kind of data set: Clinical trial of oral fasudil on frequency of wandering (Example 1). The class given is in vivo, human. The source says: Twenty patients, 10 with AD and 10 with VaD (confirmed by […]) who are characterized wanderers, are enrolled into the study and observed for 2 weeks to confirm wandering behavior. […] The double-blind phase is followed by another treatment period of 6 weeks with the opposite treatment assignment (placebo or test drug taken with food).
• a. Walks distinctly more than average as others of same age and ability AND/OR • b. Elopement behavior≥3× per week in the opinion of the investigator Criteria for Entering First Double-Blind Treatment Period: Wanders: • a. Walks less than half the mean distance measured in observation period AND/OR • b. Elopement behavior<1× per week in the opinion of the investigator AND/OR • c. Wandering has improved in the opinion of the Investigator. 4. For entering observation period and for entering open label treatment period: • a. MMSE between 10 and 25.
Wandering is measured in term of time in motion and distance traveled (measures of persistent wandering), attempted and successful boundary transgressions (measures of elopement) and patterns like pacing a lapping (indicative of persistent wandering and/or agitation or anxiety) using an electronic tracking device. A typical tracking device would use a combination of accelerometry with positioning, using technology like RFID or Bluetooth in an indoor environment and GPS outdoors. Other wayfinding, orientation and memory-associated wandering incidents are observed and recorded manually.
The Mini Mental State Exam (MMSE), the Woolsey Wandering Questionnaire and the Revised Algase Wandering Scale are administered at baseline and at the end of each treatment period. Any change in the use of antipsychotics or anxiolytics that could affect movement during the study is strongly discouraged.

The subject of the next data set is APP/PS1 transgenic mice. As to conditions: 5 and 10 mg/kg/day intraperitoneally; cited from earlier work.
The subject of data set [2] is patients with wandering due to VaD. As to conditions: cited from earlier work.
Another data set concerns triple transgenic mice. The following applies: 30 mg/kg and 100 mg/kg in water, 10 or 12 months of age; cited from earlier work.
Data set [3] has as its system triple transgenic mouse model (APP Swedish, MAPT P301L, and PSEN1 M146V). As to conditions: 10 mg/kg/day intraperitoneally; cited from earlier work.
The next data set relates to streptozotocin rats. As to conditions: 5 and 10 mg/kg/day intraperitoneally; cited from earlier work.
The conditions of data set [4]: 1-hydroxy (M3) metabolite; cited from earlier work.
Data set [5] concerns the target p38 mitogen-activated protein kinase (Homo sapiens, UniProt Q16539). As to conditions: cited from earlier work.

Molecules are shown by their SMILES. Structures can show the parent of a compound that is named as a salt.

p38 mitogen-activated protein kinase, sequence (Q16539 whole entry): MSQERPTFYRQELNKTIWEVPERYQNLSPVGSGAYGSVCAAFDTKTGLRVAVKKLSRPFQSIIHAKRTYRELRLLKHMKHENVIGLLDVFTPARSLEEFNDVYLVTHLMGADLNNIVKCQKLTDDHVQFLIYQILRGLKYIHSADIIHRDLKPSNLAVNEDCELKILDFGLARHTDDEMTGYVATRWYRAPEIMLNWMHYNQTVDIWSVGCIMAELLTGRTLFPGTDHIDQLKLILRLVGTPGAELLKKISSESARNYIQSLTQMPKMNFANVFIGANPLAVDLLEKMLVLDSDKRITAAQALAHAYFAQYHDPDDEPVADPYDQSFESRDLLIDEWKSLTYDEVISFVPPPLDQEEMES

Take `O=S(=O)(c1cccc2cnccc12)N1CCCNCC1` [fasudil, Hexahydro-1-(5-isoquinolinesulfonyl)-1H-1,4-diazepine monohydrochloride hemihydrate]: the “measures of caregiver burden” value in data set [1] (on drug, 90 mg/day) is reported as “significant effect”. Also, the “reduction in wandering, at least one item of the RAWS and/or the WWQ” value in data set [1] (oral 90 mg/day (30 mg TID), 6 weeks, AD and cortical VaD wanderers) is listed as “significant reduction”. Moreover, the “mean increase in MMSE score” value in data set [1] (persistent wanderers, 90 mg/day) was “greater than 3 points”. For the same compound, the “reduction of activity levels” value in data set [1] (persistent wanderers, on drug as compared to placebo, 90 mg/day) was “about 50%”. Moreover, in data set [1] (sporadic wanderers, while on drug), the “wayfinding errors and other problematic behaviors” value is reported as “significant reduction”. In addition, the “latency distance and quadrant time in the Morris water maze” value in the data set on APP/PS1 transgenic mice and in the data set on streptozotocin rats was “improved” each time. Besides, the wandering symptoms entry in data set [2] (patient with Binswanger-type cerebral infarction, within weeks of beginning treatment) is “disappeared and remained absent for the duration of treatment”. Also, the wayfinding symptoms result in data set [2] (patient with sequelae of cerebral bleeding and multiple lacunar infarctions (lacunar dementia)) is “disappeared quickly and remained absent for the duration of treatment”. For the same compound, the spatial memory result in the data set on triple transgenic mice is “did not observe improvements”. Also, the “ß-amyloid plaques in vivo” value in data set [3] is given as “reduce ß-amyloid plaques”.
Take `O=S(=O)(c1cccc2c(O)nccc12)N1CCCNCC1` [M3]: in data set [4], the half-life entry was “about 8 hours”.
Take `O=c1ncn2nc(Sc3ccc(F)cc3F)ccc2c1-c1c(Cl)cccc1Cl` [Neflamapimod]: in data set [5] (Phase 2), the “primary endpoint of improving episodic memory” value was “failed” and the “tau in the cerebrospinal fluid” value was “reducing tau”. Further, the Aβ deposition result in data set [5] (humans) is given as “no effect”.
